{"source": "paper PMC11840788", "about": "“3,3′-Diindolylmethane (DIM): A Molecular Scaffold for Inhibition of WWP1 and WWP2, Members of the NEDD4 Family HECT E3 Ligases” (ACS Omega, 2025)", "key": {"[1]": {"target": "WWP1 (Homo sapiens, UniProt Q9H0M0)", "sequence (Q9H0M0 546-922 limits assumed)": "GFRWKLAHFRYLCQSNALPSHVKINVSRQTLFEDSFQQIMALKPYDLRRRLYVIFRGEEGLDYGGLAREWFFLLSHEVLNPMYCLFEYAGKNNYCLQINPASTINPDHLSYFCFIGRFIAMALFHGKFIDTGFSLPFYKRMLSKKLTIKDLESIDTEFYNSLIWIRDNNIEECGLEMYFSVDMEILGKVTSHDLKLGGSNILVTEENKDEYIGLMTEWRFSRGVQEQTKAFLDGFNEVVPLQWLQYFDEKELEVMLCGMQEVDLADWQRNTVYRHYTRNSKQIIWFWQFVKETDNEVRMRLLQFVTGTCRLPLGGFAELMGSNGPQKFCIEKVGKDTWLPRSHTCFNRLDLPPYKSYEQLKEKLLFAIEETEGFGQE", "experiment": "STD NMR binding, WWP1", "details": "500 μM ligand, 20 μM protein", "experimental": "Given the similarities between WWP1 and WWP2 HECT domains, we speculated that the relatively low sensitivity of DSF may not be able to detect weak WWP2-I3C interactions and therefore opted to investigate further using STD NMR. STD NMR is a versatile ligand-based NMR approach, relying on selective saturation of the protein. This saturation is transferred to the ligand when and if the ligand binds, causing a reduction of the signal intensities. The STD intensities are calculated as the difference of the reference spectra (where selective saturation is off) minus the irradiated spectra, and they are proportional to the vicinity of the protein surface. […]\nAn Amicon centrifuge filter unit with a 10 kDa MW cutoff was used to exchange the protein in 25 mM d19-2,2-bis(hydroxymethyl)-2,2′,2″-nitrilotriethanol, 100 mM NaCl and 1.0 mM DTT buffer pH* 8.9 (uncorrected for the deuterium isotope effect on the pH glass electrode) in D2O. […] All the NMR experiments were performed on a Bruker Avance 800.23 MHz at 278 K. Binding epitope mappings were obtained by determining the initial slopes (STD0) calculated by performing a least-squares fitting of the following monoexponential curve: [drawing 1] where STD(tsat) is the STD intensity for a saturation time, tsat, STDmax is the maximum STD intensity and ksat is the rate constant for saturation transfer. […]"}, "[2]": {"system": "WWP1 HECT domain", "design": "method as in doi:10.1016/j.phytol.2023.01.002", "details": "thermal shift analysis; cited from earlier work"}}}
{"smiles": "OCc1c[nH]c2ccccc12", "note": "[Compound I3C, Indole-3-carbinol, reference compound]", "values": [{"measurement": "STD intensities, WWP1-I3C complex", "setting": "[1]", "value": "~30", "unit": "%"}, {"measurement": "shift in Tm", "setting": "[2]", "value": 3.8, "unit": "°C"}]}
